This is an account of results in ChEMBL document CHEMBL1124432, “(6R,6S)-5,8,10-trideaza-5,6,7,8-tetrahydrofolate and 6(R,6S)-5,8,10-trideaza-5,6,7,8-tetrahydropteroyl-L-ornithine as potential antifolates and antitumor agents” (J Med Chem, 1989).

In series [1] the target is T1, Folylpolyglutamate synthase, mitochondrial (Mus musculus) (UniProt P48760).
T1 sequence (whole entry): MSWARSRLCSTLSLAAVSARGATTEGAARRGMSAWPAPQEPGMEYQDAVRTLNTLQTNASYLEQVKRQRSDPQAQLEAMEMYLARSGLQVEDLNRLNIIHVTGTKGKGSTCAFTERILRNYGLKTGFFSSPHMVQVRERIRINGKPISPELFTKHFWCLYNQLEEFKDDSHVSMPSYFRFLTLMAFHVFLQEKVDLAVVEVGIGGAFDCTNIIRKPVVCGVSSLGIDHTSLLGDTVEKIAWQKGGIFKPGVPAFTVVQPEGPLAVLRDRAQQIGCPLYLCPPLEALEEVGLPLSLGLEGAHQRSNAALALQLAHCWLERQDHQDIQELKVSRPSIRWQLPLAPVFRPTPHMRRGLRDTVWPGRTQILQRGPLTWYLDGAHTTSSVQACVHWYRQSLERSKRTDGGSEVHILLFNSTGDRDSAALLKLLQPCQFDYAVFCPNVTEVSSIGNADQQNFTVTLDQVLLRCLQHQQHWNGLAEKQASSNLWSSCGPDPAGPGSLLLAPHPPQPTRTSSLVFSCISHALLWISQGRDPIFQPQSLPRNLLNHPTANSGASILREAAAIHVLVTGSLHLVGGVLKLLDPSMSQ
Kind of series: (§1) The apparent Km of compound as a substrate for partially purified mouse liver Folyl-polyglutamate synthase.

For another series, the system named is CCRF-CEM. Kind of series: Inhibitory activity against the growth of CEM human leukoblast cells; value ranges from 20-60. The class given is functional, cell-based.
A further series relates to L1210. Kind of series: Inhibitory activity against the growth of murine L1210 leukemia cells; value ranges from 20-60. The class given is functional, cell-based. The settings on record: Mus musculus.
The nature of series [2]: Inhibitory activity against the growth of SSC15 human squamous carcinoma cells; value ranges from 20-60. In kind it is functional.
Substrate in series [3]: Nc1nc(N)c2nc(CNc3ccc(C(=O)N[C@@H](CCC(=O)O)C(=O)O)cc3)cnc2n1
Described as §1.

Substrate in series [4]: Nc1nc(O)c2c(n1)CCC(CCc1ccc(C(=O)NC(CCC(=O)O)C(=O)O)cc1)C2
The series is described as §1.

Substrate in series [5]: Nc1nc(O)c2c(n1)NCC(CNc1ccc(C(=O)N[C@@H](CCC(=O)O)C(=O)O)cc1)N2
The series is described as §1.

Turning to `NCCCC(NC(=O)c1ccc(CCC2CCc3nc(N)nc(O)c3C2)cc1)C(=O)O` (configuration not stated), in series [1], the Kis worked out at 10.1 µM.
What is called IC50 is the concentration that gives 50% inhibition. `Nc1nc(O)c2cc(CCc3ccc(C(=O)N[C@@H](CCC(=O)O)C(=O)O)cc3)cnc2n1`: the IC50 (in the series with CCRF-CEM; in the series on L1210; in series [2]) was 60 nM in each case.

B1: Folylpolyglutamate synthase, mitochondrial (Mus musculus), P48760 (protein)
chain: MSWARSRLCSTLSLAAVSARGATTEGAARRGMSAWPAPQEPGMEYQDAVRTLNTLQTNASYLEQVKRQRSDPQAQLEAMEMYLARSGLQVEDLNRLNIIHVTGTKGKGSTCAFTERILRNYGLKTGFFSSPHMVQVRERIRINGKPISPELFTKHFWCLYNQLEEFKDDSHVSMPSYFRFLTLMAFHVFLQEKVDLAVVEVGIGGAFDCTNIIRKPVVCGVSSLGIDHTSLLGDTVEKIAWQKGGIFKPGVPAFTVVQPEGPLAVLRDRAQQIGCPLYLCPPLEALEEVGLPLSLGLEGAHQRSNAALALQLAHCWLERQDHQDIQELKVSRPSIRWQLPLAPVFRPTPHMRRGLRDTVWPGRTQILQRGPLTWYLDGAHTTSSVQACVHWYRQSLERSKRTDGGSEVHILLFNSTGDRDSAALLKLLQPCQFDYAVFCPNVTEVSSIGNADQQNFTVTLDQVLLRCLQHQQHWNGLAEKQASSNLWSSCGPDPAGPGSLLLAPHPPQPTRTSSLVFSCISHALLWISQGRDPIFQPQSLPRNLLNHPTANSGASILREAAAIHVLVTGSLHLVGGVLKLLDPSMSQ
As usually defined, the Km is the substrate concentration at which the rate is half of its maximum. B1: the Km in series [3] stood at 20 µM; in series [4], 1.54 µM; in series [5], 8 µM.
